According to ChEMBL document CHEMBL1201862, “PubChem BioAssay data set” (2004):
The source made the active and inactive calls. For most assays here, no stated cut-off is given here; in the data, actives have a measured EC50 and inactives only a lower limit.

Key:
[1] = NIH3T3 cell viability loss – ATP luminescence, mouse fibroblasts, counter-screen, dose response (AID 2010); type: functional, cell-based;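 further: cells exposed to compound for about 90 hours before reading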
[2] = Trypanosoma cruzi growth suppression in host cells – NIH3T3 host cells, beta-gal luminescence, confirmation (AID 2044); type: functional, cell-based;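 further: intracellular parasites grown in NIH/3T3 mouse fibroblasts as host cells; luminescent beta-galactosidase reporter signal from transgenic T. cruzi replicating inside host cells; inhibitors lower the luminescence signal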
Streptococcus = test: GAS UMAA2166 growth inhibition – luminescence, BacTiterGlo, counter-screen for streptokinase expression inhibitor project, dose response (AID 1915); type: functional, organism-based;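 further: potency for reduction of bacterial viability or growth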
[3] = test system: Streptococcus sp. 'group A'; test: Streptococcus pyogenes SK(-)GAS viability under kanamycin – luminescence, BacTiterGlo, confirmation, counter-screen for streptokinase expression inhibitor project, dose response (AID 1900); type: functional, organism-based
Cytochrome P450 1A2 = target: T1, Cytochrome P450 1A2 (Homo sapiens, UniProt P05177);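 further: PubChem cytochrome P450 panel assay, CYP1A2 panel member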
T1 sequence (P05177 whole entry): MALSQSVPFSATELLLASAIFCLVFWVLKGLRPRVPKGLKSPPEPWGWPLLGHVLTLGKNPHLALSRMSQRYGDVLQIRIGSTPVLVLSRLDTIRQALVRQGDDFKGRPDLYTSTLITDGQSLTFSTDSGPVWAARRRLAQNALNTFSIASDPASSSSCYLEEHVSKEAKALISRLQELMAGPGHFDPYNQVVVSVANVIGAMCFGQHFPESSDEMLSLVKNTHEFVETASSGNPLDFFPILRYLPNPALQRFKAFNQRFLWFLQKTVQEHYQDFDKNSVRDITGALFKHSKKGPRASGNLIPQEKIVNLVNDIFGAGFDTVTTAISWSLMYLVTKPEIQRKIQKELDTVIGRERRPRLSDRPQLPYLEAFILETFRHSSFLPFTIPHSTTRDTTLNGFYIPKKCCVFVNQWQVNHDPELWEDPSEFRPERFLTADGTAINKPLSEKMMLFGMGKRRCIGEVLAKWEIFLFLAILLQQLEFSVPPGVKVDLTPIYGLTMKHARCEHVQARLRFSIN

Paired box protein Pax-8 = Paired box protein Pax-8 (Homo sapiens, UniProt Q06710); test: PAX8 transcriptional activity inhibition in RMG-I – RMG-I cells, luciferase, cherry-pick, dose response (AID 687027); type: functional, cell-based;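 further: luciferase reporter driven by Pax8 target thyroperoxidase promoter measured by SteadyGlo luminescence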
Sequence of Paired box protein Pax-8 (Q06710 whole entry): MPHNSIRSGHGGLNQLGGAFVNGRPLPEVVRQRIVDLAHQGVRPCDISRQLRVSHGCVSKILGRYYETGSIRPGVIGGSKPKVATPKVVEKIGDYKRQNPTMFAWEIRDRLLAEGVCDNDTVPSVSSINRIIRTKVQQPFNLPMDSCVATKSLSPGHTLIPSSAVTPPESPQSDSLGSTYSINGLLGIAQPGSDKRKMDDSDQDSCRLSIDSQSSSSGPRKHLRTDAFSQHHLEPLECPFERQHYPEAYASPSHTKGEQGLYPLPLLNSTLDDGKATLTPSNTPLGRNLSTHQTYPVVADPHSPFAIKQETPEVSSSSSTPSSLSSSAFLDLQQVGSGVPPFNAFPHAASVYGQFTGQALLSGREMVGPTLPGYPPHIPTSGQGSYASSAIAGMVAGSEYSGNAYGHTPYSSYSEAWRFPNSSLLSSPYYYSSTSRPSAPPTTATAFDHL

| Structure (SMILES) | EC50 [1] | EC50 [2] | also measured |
| --- | --- | --- | --- |
| O=C(CSc1nc(Nc2ccccc2)nc(N2CCOCC2)n1)Nc1ccc([N+](=O)[O-])cc1 | > 60 µM (not active) | 2.18 µM (active) |  |
| CCCCCCn1c(=O)c(C(=O)N/N=C/c2cccc(F)c2)c(O)c2ccccc21 |  |  | EC50 (Streptococcus): 16.1 µM (active); EC50 [3]: 11.6 µM (active) |
| Cc1ccc(CN2CCN(Cc3ccccc3)CC2)cc1 | > 60 µM (not active) | 0.143 µM (active) |  |
| CN(C)C(=O)c1ccc(-c2cncnc2NCc2ccccc2)cc1 |  |  | AC50 (Cytochrome P450 1A2): 20 µM (inconclusive) |
| Cc1nn(-c2ccccc2)c(Cl)c1C1C(C#N)=C(N)Oc2c1c(=O)oc1ccccc21 (stereo unspecified) |  |  | EC50 (Streptococcus): 0.344 µM (active); EC50 [3]: 0.197 µM (active) |
| O=C(Nc1ccc(S(=O)(=O)N2CCc3ccccc32)cc1)c1ccc2c(c1)OCO2 | > 60 µM (not active) | 3.4 µM (active) |  |
| O=C(Nc1ccc(Br)cc1)C1CCC(=O)N1Cc1ccccc1Cl (stereo unspecified) |  |  | AC50 (Cytochrome P450 1A2): 14.1 µM (inconclusive) |
| COc1ccccc1NC(=O)/C=C1\SCC(=O)N1C | > 60 µM (not active) | 0.949 µM (active) |  |
| COC(=O)c1ccc(N2CCC(c3cc(-c4ccc(OC)cc4)[nH]n3)CC2)c([N+](=O)[O-])c1 |  |  | EC50 (Streptococcus): 44.2 µM (active); EC50 [3]: 3.87 µM (active) |
| C[C@@H]1CCCCO[C@@H](CN(C)S(=O)(=O)c2ccc(Cl)cc2)[C@H](C)CN([C@@H](C)CO)C(=O)c2cc(NS(=O)(=O)c3ccc(Cl)cc3)ccc2O1 |  |  | AC50 (Paired box protein Pax-8): 2.78 µM (active) |
| CCCn1c(=O)n(C)c(=O)c2c(SCC(=O)NC34CC5CC(CC(C5)C3)C4)nc(CC(C)C)nc21 | > 60 µM (not active) | > 60 µM (not active) |  |
| CCN1CCN(CCOc2ccc(Cl)cc2)CC1 | > 30 µM (not active) | 0.176 µM (active) |  |
| COc1cc(CNCc2cccs2)ccc1OCC(N)=O |  |  | AC50 (Cytochrome P450 1A2): 39.8 µM (inconclusive) |
| Cc1ccc2oc(=O)cc(CN3CCN(C/C=C/c4ccccc4)CC3)c2c1 | > 60 µM (not active) | 0.293 µM (active) |  |
| O=C(Cn1cnc2cc([N+](=O)[O-])ccc2c1=O)Nc1ccc2c(c1)CCC2 | > 60 µM (not active) | 0.5 µM (active) |  |
| O=C(O)CCN1C(=S)CSC1=S |  |  | AC50 (Cytochrome P450 1A2): 5.01 µM (inconclusive) |
| COc1ccc(NC(=O)c2ccc([N+](=O)[O-])cc2[N+](=O)[O-])c(OC)c1 | > 30 µM (not active) | 1.16 µM (active) |  |
| Cc1noc(C)c1NC(=O)Nc1cccc2c1O[C@H](CN(C)Cc1ccc(C(F)(F)F)cc1)[C@H](C)CN([C@@H](C)CO)C2=O |  |  | AC50 (Paired box protein Pax-8): 27.5 µM (active) |
| COCC1=C(C(=O)OC(C)OC(=O)OC(C)C)N2C(=O)[C@@H](NC(=O)/C(=N\OC)c3csc(N)n3)[C@H]2SC1 (stereo partly specified) [CEFPODOXIME PROXETIL] |  |  | EC50 (Streptococcus): 0.987 µM (active); EC50 [3]: 0.697 µM (active) |
| C[C@H]1CCCCO[C@@H](CN(C)Cc2ccc(C(F)(F)F)cc2)[C@@H](C)CN([C@@H](C)CO)C(=O)c2cc(NS(=O)(=O)c3cccs3)ccc2O1 |  |  | AC50 (Paired box protein Pax-8): 7.2 µM (active) |
| COC(=O)[C@@]12C[C@@H](CC(=O)N3CCN(C(=O)c4ccco4)CC3)C(=O)N(Cc3ccco3)C1=CCC(C)(C)C2 |  |  | AC50 (Paired box protein Pax-8): 2.44 µM (active) |
| CC1CCN(S(=O)(=O)c2ccc(NC(=O)CN3CCN(C)CC3)cc2)CC1 | > 60 µM (not active) | 0.738 µM (active) |  |
